Source: patent EP1880990A1, “NOVEL ORGANIC ELECTROLUMINESCENT MATERIAL, ORGANIC ELECTROLUMINESCENT ELEMENT EMPLOYING THE SAME, AND THIN-FILM-FORMING SOLUTION FOR ORGANIC ELECTROLUMINESCENCE” (IDEMITSU KOSAN CO., LTD., priority 2005, dated 2006)

Tests used:
Solubility in toluene = type: physicochemical; conditions: for Solubility (toluene): soluble in an amount of ... or more; for Preparation of 1 % by mass toluene solution: 1 % by mass in toluene
Source text: A preparation of 1 % by mass toluene solution was tried employing Compound C below instead of Compound 1 in accordance with the same procedures as those conducted in Example 1.
A preparation of 1 % by mass toluene solution was tried employing Compound D below instead of Compound 1 in accordance with the same procedures as those conducted in Example 1.

Ionization potential = type: physicochemical

Solubility (toluene) (Solubility in toluene) [wt %] | Ionization potential (Ionization potential) [eV] | Preparation of 1 % by mass toluene solution (Solubility in toluene) | SMILES
≥ 5 | 5.14 | – | CCCCCCCCC1(CCCCCCCC)c2cc(N(c3ccccc3)c3ccc(-c4ccc(N(c5ccc(-c6ccccc6)cc5)c5ccc(-c6ccccc6)cc5)cc4)cc3)ccc2-c2ccc(N(c3ccccc3)c3ccc(-c4ccc(N(c5ccc(-c6ccccc6)cc5)c5ccc(-c6ccccc6)cc5)cc4)cc3)cc21 [Compound 10]
≥ 1 | – | – | CC1(C)c2ccccc2-c2ccc(N(c3ccccc3)c3ccc(-c4ccc(N(c5ccccc5)c5ccc(-c6cccc(-c7cccc(-c8ccc(N(c9ccccc9)c9ccc(-c%10ccc(N(c%11ccccc%11)c%11ccc%12c(c%11)C(C)(C)c%11ccccc%11-%12)cc%10)cc9)cc8)c7)c6)cc5)cc4)cc3)cc21 [Compound 9]
≥ 1 | – | – | CC1(C)c2ccccc2-c2ccc(N(c3ccccc3)c3ccc(-c4ccc(N(c5ccccc5)c5ccc(-c6cccc(-c7ccc(N(c8ccccc8)c8ccc(-c9ccc(N(c%10ccccc%10)c%10ccc%11c(c%10)C(C)(C)c%10ccccc%10-%11)cc9)cc8)cc7)c6)cc5)cc4)cc3)cc21 [Compound 2]
≥ 1 | – | – | CCCCCCCCC1(CCCCCCCC)c2cc(N(c3ccccc3)c3ccc(-c4ccc(N(c5ccccc5)c5ccc6c(c5)C(C)(C)c5ccccc5-6)cc4)cc3)ccc2-c2ccc(N(c3ccccc3)c3ccc(-c4ccc(N(c5ccccc5)c5ccc6c(c5)C(C)(C)c5ccccc5-6)cc4)cc3)cc21 [Compound 4]
– | – | did not dissolve in toluene | c1ccc(-c2ccc(N(c3ccc(-c4ccccc4)cc3)c3ccc(-c4ccc(N(c5ccc(-c6ccccc6)cc5)c5ccc(-c6ccccc6)cc5)cc4)cc3)cc2)cc1 [Compound D, reference compound]
≥ 1 | – | – | CCC(C)c1ccc(N(c2ccc(-c3ccc(N(c4ccccc4)c4ccc5c(c4)C(C)(C)c4ccccc4-5)cc3)cc2)c2ccc(-c3cccc(-c4ccc(N(c5ccc(-c6ccc(N(c7ccccc7)c7ccc8c(c7)C(C)(C)c7ccccc7-8)cc6)cc5)c5ccc(C(C)CC)cc5)cc4)c3)cc2)cc1 (centres unmarked) [Compound 3]
≥ 1 | – | – | CCC(C)c1ccc(N(c2ccc(-c3ccc(-c4cccc(-c5ccc(-c6ccc(N(c7ccc(-c8ccc(N(c9ccccc9)c9ccccc9)cc8)cc7)c7ccc(C(C)CC)cc7)cc6)cc5)c4)cc3)cc2)c2ccc(-c3ccc(N(c4ccccc4)c4ccccc4)cc3)cc2)cc1 (centres unmarked) [Compound 8]
≥ 1 | – | – | CCC(C)c1ccc(N(c2ccc(-c3ccc(-c4cccc(-c5cccc(-c6ccc(-c7ccc(N(c8ccc(-c9ccc(N(c%10ccc(-c%11ccccc%11)cc%10)c%10ccc(-c%11ccccc%11)cc%10)cc9)cc8)c8ccc(C(C)CC)cc8)cc7)cc6)c5)c4)cc3)cc2)c2ccc(-c3ccc(N(c4ccc(-c5ccccc5)cc4)c4ccc(-c5ccccc5)cc4)cc3)cc2)cc1 (centres unmarked) [Compound 7]
– | – | did not dissolve in toluene | c1ccc(N(c2ccc(-c3ccc(N(c4ccccc4)c4cccc5ccccc45)cc3)cc2)c2cccc3ccccc23)cc1 [Compound C, reference compound]
≥ 1 | – | – | c1ccc(N(c2ccc(-c3ccc(N(c4ccccc4)c4cccc5ccccc45)cc3)cc2)c2ccc(-c3cccc(-c4cccc(-c5ccc(N(c6ccccc6)c6ccc(-c7ccc(N(c8ccccc8)c8cccc9ccccc89)cc7)cc6)cc5)c4)c3)cc2)cc1 [Compound 5]
